Data published in paper PMC12446476 (Nature Communications, 2025).
≈ marks a conversion by molar mass, not a printed value. Read-outs that look alike come from different tables or passages of the source.

Test system: N. gonorrhoeae
Test: MIC determination, agar dilution (CLSI)
Format: cell-based, Neisseria gonorrhoeae
In short: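 For N. gonorrhoeae, WHO 2024 reference strains served as quality control, only whole doubling-dilution MICs were reported, and isolates were classified by EUCAST v14.0 breakpoints or ECOFF. Time-kill assays followed CLSI in Columbia broth with 1% IsoVitaleX, and viable counts came from plating serial dilutions on GC agar with IsoVitaleX.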

[1] = Neisseria gonorrhoeae, 100 contemporary clinical N. gonorrhoeae isolates

In the case of `Cc1c(CN(C)C(=O)/C=C/c2cnc3c(c2)N[C@H](C)[C@H](O)C(=O)N3)oc2ccccc12` [Debio 1453], the MIC (Neisseria gonorrhoeae, clinical N. gonorrhoeae isolate 31, Sweden 2023, read-out: Minimum inhibitory concentration) is reported as 0.064 µg/mL (≈ 0.152 µM), the MIC (Neisseria gonorrhoeae, clinical N. gonorrhoeae isolate 32, Sweden 2023, read-out: Minimum inhibitory concentration) is reported as 0.016 µg/mL (≈ 0.0381 µM) and the MIC (Neisseria gonorrhoeae, clinical N. gonorrhoeae isolate 33, Sweden 2023, read-out: Minimum inhibitory concentration) is reported as 0.064 µg/mL (≈ 0.152 µM). For the same compound, the MIC (Neisseria gonorrhoeae, clinical N. gonorrhoeae isolate 34, Sweden 2023, read-out: Minimum inhibitory concentration) was 0.064 µg/mL (≈ 0.152 µM), the MIC (Neisseria gonorrhoeae, clinical N. gonorrhoeae isolate 35, Sweden 2023, read-out: Minimum inhibitory concentration) was 0.032 µg/mL (≈ 0.0761 µM) and the MIC (Neisseria gonorrhoeae, clinical N. gonorrhoeae isolate 36, Sweden 2023, read-out: Minimum inhibitory concentration) was 0.016 µg/mL (≈ 0.0381 µM). The MIC (Neisseria gonorrhoeae, clinical N. gonorrhoeae isolate 37, Sweden 2023, read-out: Minimum inhibitory concentration) was 0.064 µg/mL (≈ 0.152 µM), the MIC (Neisseria gonorrhoeae, clinical N. gonorrhoeae isolate 38, Sweden 2023, read-out: Minimum inhibitory concentration) was 0.064 µg/mL (≈ 0.152 µM) and the MIC (Neisseria gonorrhoeae, clinical N. gonorrhoeae isolate 39, Sweden 2023, read-out: Minimum inhibitory concentration) was 0.008 µg/mL (≈ 0.019 µM). The MIC (Neisseria gonorrhoeae, clinical N. gonorrhoeae isolate 40, Sweden 2023, read-out: Minimum inhibitory concentration) was 0.064 µg/mL (≈ 0.152 µM), the MIC (Neisseria gonorrhoeae, clinical N. gonorrhoeae isolate 41, Sweden 2023, read-out: Minimum inhibitory concentration) was 0.125 µg/mL (≈ 0.297 µM) and the MIC (Neisseria gonorrhoeae, clinical N. gonorrhoeae isolate 42, Sweden 2023, read-out: Minimum inhibitory concentration) was 0.032 µg/mL (≈ 0.0761 µM). For the same compound, the MIC (Neisseria gonorrhoeae, clinical N. gonorrhoeae isolate 43, Sweden 2023, read-out: Minimum inhibitory concentration) was 0.064 µg/mL (≈ 0.152 µM), the MIC (Neisseria gonorrhoeae, clinical N. gonorrhoeae isolate 44, Sweden 2023, read-out: Minimum inhibitory concentration) was 0.032 µg/mL (≈ 0.0761 µM) and the MIC (Neisseria gonorrhoeae, clinical N. gonorrhoeae isolate 45, Sweden 2023, read-out: Minimum inhibitory concentration) was 0.032 µg/mL (≈ 0.0761 µM). The MIC (Neisseria gonorrhoeae, clinical N. gonorrhoeae isolate 46, Sweden 2023, read-out: Minimum inhibitory concentration) was 0.032 µg/mL (≈ 0.0761 µM), the MIC (Neisseria gonorrhoeae, clinical N. gonorrhoeae isolate 47, Sweden 2023, read-out: Minimum inhibitory concentration) was 0.064 µg/mL (≈ 0.152 µM) and the MIC (Neisseria gonorrhoeae, clinical N. gonorrhoeae isolate 48, Sweden 2023, read-out: Minimum inhibitory concentration) was 0.016 µg/mL (≈ 0.0381 µM). The MIC (Neisseria gonorrhoeae, clinical N. gonorrhoeae isolate 49, Sweden 2023, read-out: Minimum inhibitory concentration) was 0.032 µg/mL (≈ 0.0761 µM), the MIC (Neisseria gonorrhoeae, clinical N. gonorrhoeae isolate 50, Sweden 2023, read-out: Minimum inhibitory concentration) was 0.064 µg/mL (≈ 0.152 µM) and the MIC (Neisseria gonorrhoeae, clinical N. gonorrhoeae isolate 51, Sweden 2023, read-out: Minimum inhibitory concentration) was 0.016 µg/mL (≈ 0.0381 µM). The MIC (Neisseria gonorrhoeae, clinical N. gonorrhoeae isolate 52, Sweden 2023, read-out: Minimum inhibitory concentration) was 0.125 µg/mL (≈ 0.297 µM), the MIC (Neisseria gonorrhoeae, clinical N. gonorrhoeae isolate 53, Sweden 2023, read-out: Minimum inhibitory concentration) was 0.064 µg/mL (≈ 0.152 µM) and the MIC (Neisseria gonorrhoeae, clinical N. gonorrhoeae isolate 54, Sweden 2023, read-out: Minimum inhibitory concentration) was 0.064 µg/mL (≈ 0.152 µM). The MIC (Neisseria gonorrhoeae, clinical N. gonorrhoeae isolate 55, Sweden 2023, read-out: Minimum inhibitory concentration) was 0.064 µg/mL (≈ 0.152 µM), the MIC (Neisseria gonorrhoeae, clinical N. gonorrhoeae isolate 56, Sweden 2023, read-out: Minimum inhibitory concentration) was 0.008 µg/mL (≈ 0.019 µM) and the MIC (Neisseria gonorrhoeae, clinical N. gonorrhoeae isolate 57, Sweden 2023, read-out: Minimum inhibitory concentration) was 0.032 µg/mL (≈ 0.0761 µM). For the same compound, the MIC (Neisseria gonorrhoeae, clinical N. gonorrhoeae isolate 58, Sweden 2023, read-out: Minimum inhibitory concentration) was 0.064 µg/mL (≈ 0.152 µM), the MIC (Neisseria gonorrhoeae, clinical N. gonorrhoeae isolate 59, Sweden 2023, read-out: Minimum inhibitory concentration) was 0.064 µg/mL (≈ 0.152 µM) and the MIC (Neisseria gonorrhoeae, clinical N. gonorrhoeae isolate 60, Sweden 2023, read-out: Minimum inhibitory concentration) was 0.064 µg/mL (≈ 0.152 µM). For the same compound, the MIC (Neisseria gonorrhoeae, clinical N. gonorrhoeae isolate 61, Sweden 2023, read-out: Minimum inhibitory concentration) was 0.064 µg/mL (≈ 0.152 µM), the MIC (Neisseria gonorrhoeae, clinical N. gonorrhoeae isolate 62, Sweden 2023, read-out: Minimum inhibitory concentration) was 0.016 µg/mL (≈ 0.0381 µM) and the MIC (Neisseria gonorrhoeae, clinical N. gonorrhoeae isolate 63, Sweden 2023, read-out: Minimum inhibitory concentration) was 0.032 µg/mL (≈ 0.0761 µM). The MIC (Neisseria gonorrhoeae, clinical N. gonorrhoeae isolate 64, Sweden 2023, read-out: Minimum inhibitory concentration) was 0.008 µg/mL (≈ 0.019 µM), the MIC (Neisseria gonorrhoeae, clinical N. gonorrhoeae isolate 65, Sweden 2023, read-out: Minimum inhibitory concentration) was 0.064 µg/mL (≈ 0.152 µM) and the MIC (Neisseria gonorrhoeae, clinical N. gonorrhoeae isolate 66, Sweden 2023, read-out: Minimum inhibitory concentration) was 0.032 µg/mL (≈ 0.0761 µM). The MIC (Neisseria gonorrhoeae, clinical N. gonorrhoeae isolate 67, Sweden 2023, read-out: Minimum inhibitory concentration) was 0.032 µg/mL (≈ 0.0761 µM), the MIC (Neisseria gonorrhoeae, clinical N. gonorrhoeae isolate 68, Sweden 2023, read-out: Minimum inhibitory concentration) was 0.064 µg/mL (≈ 0.152 µM) and the MIC (Neisseria gonorrhoeae, clinical N. gonorrhoeae isolate 69, Sweden 2023, read-out: Minimum inhibitory concentration) was 0.064 µg/mL (≈ 0.152 µM). It also gave an MIC (Neisseria gonorrhoeae, clinical N. gonorrhoeae isolate 70, Sweden 2023, read-out: Minimum inhibitory concentration) of 0.064 µg/mL (≈ 0.152 µM), an MIC (Neisseria gonorrhoeae, clinical N. gonorrhoeae isolate 71, Sweden 2023, read-out: Minimum inhibitory concentration) of 0.064 µg/mL (≈ 0.152 µM) and an MIC (Neisseria gonorrhoeae, clinical N. gonorrhoeae isolate 72, Sweden 2023, read-out: Minimum inhibitory concentration) of 0.064 µg/mL (≈ 0.152 µM). For the same compound, the MIC (Neisseria gonorrhoeae, clinical N. gonorrhoeae isolate 73, Sweden 2023, read-out: Minimum inhibitory concentration) was 0.032 µg/mL (≈ 0.0761 µM), the MIC (Neisseria gonorrhoeae, clinical N. gonorrhoeae isolate 74, Sweden 2023, read-out: Minimum inhibitory concentration) was 0.064 µg/mL (≈ 0.152 µM) and the MIC (Neisseria gonorrhoeae, clinical N. gonorrhoeae isolate 75, Sweden 2023, read-out: Minimum inhibitory concentration) was 0.008 µg/mL (≈ 0.019 µM). The MIC (Neisseria gonorrhoeae, clinical N. gonorrhoeae isolate 76, Sweden 2023, read-out: Minimum inhibitory concentration) was 0.064 µg/mL (≈ 0.152 µM), the MIC (Neisseria gonorrhoeae, clinical N. gonorrhoeae isolate 77, Sweden 2023, read-out: Minimum inhibitory concentration) was 0.064 µg/mL (≈ 0.152 µM) and the MIC (Neisseria gonorrhoeae, clinical N. gonorrhoeae isolate 78, Sweden 2023, read-out: Minimum inhibitory concentration) was 0.032 µg/mL (≈ 0.0761 µM). For the same compound, the MIC (Neisseria gonorrhoeae, clinical N. gonorrhoeae isolate 79, Sweden 2023, read-out: Minimum inhibitory concentration) was 0.032 µg/mL (≈ 0.0761 µM), the MIC (Neisseria gonorrhoeae, clinical N. gonorrhoeae isolate 80, Sweden 2023, read-out: Minimum inhibitory concentration) was 0.032 µg/mL (≈ 0.0761 µM) and the MIC (Neisseria gonorrhoeae, clinical N. gonorrhoeae isolate 81, Sweden 2023, read-out: Minimum inhibitory concentration) was 0.064 µg/mL (≈ 0.152 µM). For the same compound, the MIC (Neisseria gonorrhoeae, clinical N. gonorrhoeae isolate 82, Sweden 2023, read-out: Minimum inhibitory concentration) was 0.032 µg/mL (≈ 0.0761 µM), the MIC (Neisseria gonorrhoeae, clinical N. gonorrhoeae isolate 83, Sweden 2023, read-out: Minimum inhibitory concentration) was 0.064 µg/mL (≈ 0.152 µM) and the MIC (Neisseria gonorrhoeae, clinical N. gonorrhoeae isolate 84, Sweden 2023, read-out: Minimum inhibitory concentration) was 0.064 µg/mL (≈ 0.152 µM). For the same compound, the MIC (Neisseria gonorrhoeae, clinical N. gonorrhoeae isolate 85, Sweden 2023, read-out: Minimum inhibitory concentration) was 0.008 µg/mL (≈ 0.019 µM), the MIC (Neisseria gonorrhoeae, clinical N. gonorrhoeae isolate 86, Sweden 2023, read-out: Minimum inhibitory concentration) was 0.032 µg/mL (≈ 0.0761 µM) and the MIC (Neisseria gonorrhoeae, clinical N. gonorrhoeae isolate 87, Sweden 2023, read-out: Minimum inhibitory concentration) was 0.016 µg/mL (≈ 0.0381 µM). It also gave an MIC (Neisseria gonorrhoeae, clinical N. gonorrhoeae isolate 88, Sweden 2023, read-out: Minimum inhibitory concentration) of 0.064 µg/mL (≈ 0.152 µM), an MIC (Neisseria gonorrhoeae, clinical N. gonorrhoeae isolate 89, Sweden 2023, read-out: Minimum inhibitory concentration) of 0.032 µg/mL (≈ 0.0761 µM) and an MIC (Neisseria gonorrhoeae, clinical N. gonorrhoeae isolate 90, Sweden 2023, read-out: Minimum inhibitory concentration) of 0.125 µg/mL (≈ 0.297 µM). For the same compound, the MIC (Neisseria gonorrhoeae, clinical N. gonorrhoeae isolate 91, Sweden 2023, read-out: Minimum inhibitory concentration) was 0.032 µg/mL (≈ 0.0761 µM), the MIC (Neisseria gonorrhoeae, clinical N. gonorrhoeae isolate 92, Sweden 2023, read-out: Minimum inhibitory concentration) was 0.016 µg/mL (≈ 0.0381 µM) and the MIC (Neisseria gonorrhoeae, clinical N. gonorrhoeae isolate 93, Sweden 2023, read-out: Minimum inhibitory concentration) was 0.125 µg/mL (≈ 0.297 µM). The MIC (Neisseria gonorrhoeae, clinical N. gonorrhoeae isolate 94, Sweden 2023, read-out: Minimum inhibitory concentration) was 0.064 µg/mL (≈ 0.152 µM), the MIC (Neisseria gonorrhoeae, clinical N. gonorrhoeae isolate 95, Sweden 2023, read-out: Minimum inhibitory concentration) was 0.064 µg/mL (≈ 0.152 µM) and the MIC (Neisseria gonorrhoeae, clinical N. gonorrhoeae isolate 96, Sweden 2023, read-out: Minimum inhibitory concentration) was 0.032 µg/mL (≈ 0.0761 µM). The MIC (Neisseria gonorrhoeae, clinical N. gonorrhoeae isolate 97, Sweden 2023, read-out: Minimum inhibitory concentration) was 0.064 µg/mL (≈ 0.152 µM), the MIC (Neisseria gonorrhoeae, clinical N. gonorrhoeae isolate 98, Sweden 2023, read-out: Minimum inhibitory concentration) was 0.064 µg/mL (≈ 0.152 µM) and the MIC (Neisseria gonorrhoeae, clinical N. gonorrhoeae isolate 99, Sweden 2023, read-out: Minimum inhibitory concentration) was 0.008 µg/mL (≈ 0.019 µM). The MIC (Neisseria gonorrhoeae, clinical N. gonorrhoeae isolate 100, Sweden 2023, read-out: Minimum inhibitory concentration) was 0.008 µg/mL (≈ 0.019 µM), the MIC (Neisseria gonorrhoeae, read-out: MIC relevant for mutant selection assay, WHO Z) was 0.125 µg/mL (≈ 0.297 µM) and the MIC (Neisseria gonorrhoeae, screening panel N. gonorrhoeae isolate A, read-out: Minimum inhibitory concentration) was 0.06 µg/mL (≈ 0.143 µM). For the same compound, the MIC (Neisseria gonorrhoeae, screening panel N. gonorrhoeae isolate B, read-out: Minimum inhibitory concentration) was 0.03 µg/mL (≈ 0.0713 µM), the MIC (Neisseria gonorrhoeae, screening panel N. gonorrhoeae isolate C, read-out: Minimum inhibitory concentration) was 0.03 µg/mL (≈ 0.0713 µM) and the MIC (Neisseria gonorrhoeae, screening panel N. gonorrhoeae isolate D, read-out: Minimum inhibitory concentration) was 0.03 µg/mL (≈ 0.0713 µM). It also gave an MIC (Neisseria gonorrhoeae, screening panel N. gonorrhoeae isolate E, read-out: Minimum inhibitory concentration) of 0.03 µg/mL (≈ 0.0713 µM), an MIC (Neisseria gonorrhoeae, screening panel N. gonorrhoeae isolate F, read-out: Minimum inhibitory concentration) of 0.125 µg/mL (≈ 0.297 µM) and an MIC (Neisseria gonorrhoeae, screening panel N. gonorrhoeae isolate G, read-out: Minimum inhibitory concentration) of 0.125 µg/mL (≈ 0.297 µM). For the same compound, the MIC (Neisseria gonorrhoeae, screening panel N. gonorrhoeae isolate H, read-out: Minimum inhibitory concentration) was 0.06 µg/mL (≈ 0.143 µM), the MIC (Neisseria gonorrhoeae, screening panel N. gonorrhoeae isolate I, read-out: Minimum inhibitory concentration) was 0.03 µg/mL (≈ 0.0713 µM) and the MIC (Neisseria gonorrhoeae, screening panel N. gonorrhoeae isolate J, read-out: Minimum inhibitory concentration) was 0.06 µg/mL (≈ 0.143 µM). The MIC (Neisseria gonorrhoeae, screening panel N. gonorrhoeae isolate K, read-out: Minimum inhibitory concentration) was 0.125 µg/mL (≈ 0.297 µM), the MIC (Neisseria gonorrhoeae, screening panel N. gonorrhoeae isolate L, read-out: Minimum inhibitory concentration) was 0.06 µg/mL (≈ 0.143 µM) and the MIC (Neisseria gonorrhoeae, screening panel N. gonorrhoeae isolate M, read-out: Minimum inhibitory concentration) was 0.03 µg/mL (≈ 0.0713 µM). For the same compound, the MIC (Neisseria gonorrhoeae, screening panel N. gonorrhoeae isolate N, read-out: Minimum inhibitory concentration) was 0.03 µg/mL (≈ 0.0713 µM), the MIC (Neisseria gonorrhoeae, two clones of strain 6804 with FabI L257F) was 0.25 µg/mL (≈ 0.595 µM) and the MIC50 [1] was 0.06 µg/mL (≈ 0.143 µM). It also gave an MIC90 [1] of 0.06 µg/mL (≈ 0.143 µM) and a NgMIC50 (screening panel of 14 N. gonorrhoeae isolates) of 0.03 µg/mL.
